Data from ChEMBL document CHEMBL1201862, “PubChem BioAssay data set” (2004).
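Tested at 5 concentrations; 48 h exposure; 96-well plates; endpoints linearly interpolated, else capped at highest concentration. GI50: concentration for 50% inhibition of growth.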 Calls of active or inactive are those of the source. Rule as the data show it: active = GI50 up to about 1.1 µM and inactive = higher.

Columns and labels:
Test in all cases: DTP human tumour cell line panel, 48 h
[1] = test system: A549
[2] = test system: ACHN
[3] = test system: CAKI-1
[4] = test system: HCT-116
[5] = test system: HCT-15
[6] = test system: HL-60
[7] = test system: HOP-92
[8] = test system: HT-29
[9] = test system: K562
[10] = test system: MCF7
[11] = test system: Malme-3M
[12] = test system: PC-3
[13] = test system: SF-268
[14] = test system: SN12C
[15] = test system: SR
[16] = test system: SW-620
[17] = test system: UACC-257
[18] = test system: SNB-19

Structure (SMILES) | GI50 [1] | GI50 [2] | GI50 [3] | GI50 [4] | GI50 [5] [µM] | GI50 [6] | GI50 [7] | GI50 [8] | GI50 [9] | GI50 [10] | GI50 [11] | GI50 [12] | GI50 [13] | GI50 [14] | GI50 [15] | GI50 [16] | GI50 [17] | GI50 [18]
N[C@H](C(=O)O)[C@@H]1CC(Cl)=NO1 [ACIVICIN] | 0.916 µM (active) | 1.47 µM (inactive) | 2.52 µM (inactive) | 0.746 µM (active) | 0.738 | 3.44 µM (inactive) | 33.2 µM (inactive) | 0.787 µM (active) | 2.46 µM (inactive) | 0.676 µM (active) | 4.26 µM (inactive) | 1.48 µM (inactive) | 1.53 µM (inactive) | 3.5 µM (inactive) | 0.74 µM (active) | 1.07 µM (active) | 4.8 µM (inactive) | –
CSc1c(CC(=O)O)n(Cc2ccccc2)c2ccccc12 | 35.8 µM (inactive) | > 100 µM (inactive) | > 100 µM (inactive) | > 100 µM (inactive) | 74.5 | > 100 µM (inactive) | > 100 µM (inactive) | > 100 µM (inactive) | 72.3 µM (inactive) | > 100 µM (inactive) | > 100 µM (inactive) | > 100 µM (inactive) | > 100 µM (inactive) | > 100 µM (inactive) | > 100 µM (inactive) | > 100 µM (inactive) | > 100 µM (inactive) | > 100 µM (inactive)
CN(CCc1ccccn1)C(=S)N/N=C/c1ccccn1 | 0.285 µM (active) | 0.0366 µM (active) | < 0.01 µM (active) | < 0.01 µM (active) | 0.0148 | < 0.01 µM (active) | 0.105 µM (active) | < 0.0473 µM (active) | < 0.01 µM (active) | < 0.01 µM (active) | 0.182 µM (active) | 0.0456 µM (active) | 0.248 µM (active) | 0.111 µM (active) | < 0.01 µM (active) | 0.0916 µM (active) | < 0.0213 µM (active) | 4.69 µM (inactive)
COc1ccc(C[C@@H]2CN(C(=O)c3ccccc3)[C@H](Cc3ccc(O)cc3)CN2C(=O)c2ccccc2)cc1Br | > 100 µM (inactive) | > 100 µM (inactive) | > 100 µM (inactive) | > 100 µM (inactive) | > 100 | > 100 µM (inactive) | > 100 µM (inactive) | > 100 µM (inactive) | > 100 µM (inactive) | > 100 µM (inactive) | > 100 µM (inactive) | 55.2 µM (inactive) | > 100 µM (inactive) | > 100 µM (inactive) | 88.3 µM (inactive) | > 100 µM (inactive) | > 100 µM (inactive) | > 100 µM (inactive)
COc1cc(C(c2cccc3ccccc23)N2C(=O)CCC2C(=O)O)cc(OC)c1OC (stereo unspecified) | > 100 µM (inactive) | > 100 µM (inactive) | > 100 µM (inactive) | > 100 µM (inactive) | > 100 | > 100 µM (inactive) | > 100 µM (inactive) | > 100 µM (inactive) | > 100 µM (inactive) | > 100 µM (inactive) | > 100 µM (inactive) | > 100 µM (inactive) | > 100 µM (inactive) | > 100 µM (inactive) | > 100 µM (inactive) | > 100 µM (inactive) | > 100 µM (inactive) | > 100 µM (inactive)
NC(=O)C1CCCNC1 (stereo unspecified) | > 100 µM (inactive) | > 100 µM (inactive) | > 100 µM (inactive) | > 100 µM (inactive) | > 100 | > 100 µM (inactive) | > 100 µM (inactive) | > 100 µM (inactive) | – | > 100 µM (inactive) | > 100 µM (inactive) | > 100 µM (inactive) | > 100 µM (inactive) | > 100 µM (inactive) | > 100 µM (inactive) | > 100 µM (inactive) | – | > 100 µM (inactive)
Cc1nc(-c2ccccc2)c(C)n2c1nc1ccccc12 | 34.2 µM (inactive) | – | 34.7 µM (inactive) | 31.5 µM (inactive) | 24.2 | 16.5 µM (inactive) | 19 µM (inactive) | 20.8 µM (inactive) | 35.3 µM (inactive) | 24 µM (inactive) | 31.4 µM (inactive) | 29.9 µM (inactive) | 22.1 µM (inactive) | 42.9 µM (inactive) | 19.1 µM (inactive) | 33 µM (inactive) | 38.1 µM (inactive) | 35.6 µM (inactive)
CNC1(C(=O)O)CC1 | > 100 µM (inactive) | > 100 µM (inactive) | – | > 100 µM (inactive) | > 100 | > 100 µM (inactive) | > 100 µM (inactive) | > 100 µM (inactive) | > 100 µM (inactive) | > 100 µM (inactive) | > 100 µM (inactive) | > 100 µM (inactive) | > 100 µM (inactive) | > 100 µM (inactive) | > 100 µM (inactive) | > 100 µM (inactive) | > 100 µM (inactive) | > 100 µM (inactive)
O=C(O)Cc1ccc(Nc2nc3cc(C(F)(F)F)ccc3nc2C(=O)O)cc1 | > 100 µM (inactive) | > 100 µM (inactive) | > 100 µM (inactive) | > 100 µM (inactive) | > 100 | > 100 µM (inactive) | > 100 µM (inactive) | > 100 µM (inactive) | – | > 100 µM (inactive) | > 100 µM (inactive) | > 100 µM (inactive) | > 100 µM (inactive) | > 100 µM (inactive) | < 0.01 µM (active) | > 100 µM (inactive) | > 100 µM (inactive) | > 100 µM (inactive)
C[C@@H]1CC[C@]2(C)C3(C)CC[C@]2(OC3=O)[C@@]12CC(c1ccoc1)OC2=O (stereo partly specified) | > 100 µM (inactive) | 22.4 µM (inactive) | 34.3 µM (inactive) | 17.5 µM (inactive) | 31.4 | 21.6 µM (inactive) | 32.8 µM (inactive) | 54.7 µM (inactive) | 34 µM (inactive) | 61 µM (inactive) | 21.1 µM (inactive) | 40.6 µM (inactive) | 37.2 µM (inactive) | 33.8 µM (inactive) | 34.8 µM (inactive) | 26.9 µM (inactive) | – | > 100 µM (inactive)
NS(=O)(=O)c1ccc(Nc2c3ccccc3nc3c(C(=O)NCCCN(CCO)CCO)cccc23)cc1 | 26.7 µM (inactive) | 37.2 µM (inactive) | > 100 µM (inactive) | – | > 100 | > 10 µM (inactive) | 26.3 µM (inactive) | 25.6 µM (inactive) | 18.7 µM (inactive) | 4.8 µM (inactive) | 20.4 µM (inactive) | 34.2 µM (inactive) | 21.8 µM (inactive) | 16.4 µM (inactive) | 12.8 µM (inactive) | 21.5 µM (inactive) | 31 µM (inactive) | 15.2 µM (inactive)
Cc1ccc(S(=O)(=O)NC(=O)Nc2nnc(S(N)(=O)=O)s2)cc1 | > 100 µM (inactive) | > 100 µM (inactive) | > 100 µM (inactive) | > 100 µM (inactive) | > 100 | > 100 µM (inactive) | > 100 µM (inactive) | > 100 µM (inactive) | > 100 µM (inactive) | > 100 µM (inactive) | > 100 µM (inactive) | > 100 µM (inactive) | > 100 µM (inactive) | – | > 100 µM (inactive) | > 100 µM (inactive) | – | > 100 µM (inactive)
